# Test results published in patent US4141993A, “Compounds of diphenylcyclopentylamine type and methods for their preparation” (priority 1971, dated 1979).
# Like-named read-outs stand apart in the source and are kept apart here.
# Tests used:
# Dopa response = Dopa response potentiation test; format: in vivo, mice; conditions: for L-DOPA potentiation, 10 mg/kg i.p., 1h / L-DOPA potentiation, 10 mg/kg i.p., 4h: score, pargyline pretreated; for L-DOPA potentiation, 10 mg/kg i.p., 1h: drug 1 h before 1-Dopa 100 mg/kg i.p.; for L-DOPA potentiation, 10 mg/kg i.p., 4h: drug 4 h before 1-Dopa 100 mg/kg i.p.; for L-DOPA potentiation, entry given as a bound (no score): printed in the 1h column, head 10 mg/kg i.p.
# [1] = tested on: uptake of tritiated noradrenaline; experiment: Inhibition of the uptake of tritiated noradrenaline in vitro (cortex slices); format: biochemical; conditions: for Inhibition (50 %) of uptake in vitro, NA: dl-noradrenaline 10^-7 M
# Procedure: (§1) 2. Inhibition of the uptake of tritiated noradrenaline in vitro and in vivo
# (§2) The method is found in European Journal of Pharmacology 2 (1967), 181- 186. The animals were killed half or one hour after the administration of the drugs in vivo (i.p.). The slices, made from cortex, were preincubated for five minutes and incubated with 0.1 μmole per ml of ^3 H-noradrenaline for further five minutes. The incubation mixture consisted of 0.2 μmole of ^3 H-NA and the brain slices in 2 ml of Krebs-Henseleits buffer, pH 7.4. The radioactive ^3 H-NA taken up in the slices was extracted with ethanol and the amount was determined by liquid scintillation. The dose producing 50 percent decrease of the active uptake (ED50) was determined graphically from dose response curves. At least four animals were used at each dose level.
# Inhibition (50 %) of uptake
# ^2) Na = dl-noradrenaline 10^-7 M
# uptake of tritiated 5-HT [2] = experiment: Inhibition of the uptake of tritiated 5-HT in vitro (midbrain slices); format: biochemical, mice; conditions: for Inhibition (50 %) of uptake in vitro, 5-HT: 5-hydroxytryptamine 10^-7 M
# Procedure: (§3) 1. Inhibition of the uptake of tritiated 5-HT in vitro and in vivo
# […] out and sliced and incubated in a mixture consisting of, per 100 mg of brain slices, […] 2 ml of Krebs-Henseleit buffer, pH 7.4. The incubation time was 5 minutes with 5 minutes of preincubation before ^3 H-5-HT was added. The radioactive ^3 H-5-HT taken up in the slices was extracted with ethanol and the amount was determined by liquid scintillation. […] Active uptake is defined as that part of the radioactive uptake which is inhibited by a high concentration of cocaine. All doses were given at least to four animals.
# mice [3] = experiment: Anticholinergic effect (mydriasis) in mice; format: in vivo
# Procedure: (§4) Acute toxicity, behavior and anticholinergic effect (mydriasis) in mice
# (§5) The compounds were given by intravenous route to 3 mice. […] Seizures, gait, sedation and grip strength were recorded. […] PD200 is the dose which increases the pupil by 200%.
# 5-HTP response = 5-HTP response potentiation test; format: in vivo, mice; conditions: 0 = without effect; for 5-HTP potentiation, 25 mg/kg i.p., 1h: drug 1 h before 5-HTP; for 5-HTP potentiation, 25 mg/kg i.p., 4h: drug 4 h before 5-HTP
# Procedure: 1. 5-HTP response potentiation test
# Inhibition of the uptake of 5-HT potentiates the effects of administered 5-hydroxytryptophane (5-HTP) probably by increasing the amount of 5-HT at the receptor.
# These small movements are quantitatively measured in an activity box, type Animex, which can distinguish between small and gross movements. The activity is measured during 20 minutes and only in the case the animals have a fullblown syndrome.
# uptake of tritiated 5-HT [4] = experiment: Inhibition of the uptake of tritiated 5-HT in vivo (drug i.p., uptake in midbrain slices); parameters: species or system mice; conditions: for ED50: Mus musculus, ip, 0.5 h, read-out: Inhibition (50 %) of uptake in vivo, 5-HT (ED50), i.p., half an hour before the animals were killed
# Procedure: as §3
# The drugs were administered intraperitoneally half an hour before the animals were killed and the midbrain was taken out and sliced and incubated in a mixture consisting of, per 100 mg of brain slices, 0.2 μmole of ^3 H-5-HT and 1 μmole of glucose in 2 ml of Krebs-Henseleit buffer, pH 7.4. The incubation time was 5 minutes with 5 minutes of preincubation before ^3 H-5-HT was added. The radioactive ^3 H-5-HT taken up in the slices was extracted with ethanol and the amount was determined by liquid scintillation. […] Active uptake is defined as that part of the radioactive uptake which is inhibited by a high concentration of cocaine. All doses were given at least to four animals.
# mice [5] = experiment: Motor activity in mice (exploratory activity, locomotion cage); format: in vivo; conditions: Mus musculus, ip, 1 h, read-out: Motor activity ID50
# Procedure: The exploratory activity of mice was recorded in a locomotion cage in which the movements were counted each time the animals cross-circuit an electrical current in the bottom plate. The activity was recorded for ten minutes one hour after the administration of the drug. The animals were tested individually. Groups of six mice were used and the mice were only used once. The activity was expressed in percent of the activity of control groups ran simultaneously.
# [6] = tested on: uptake of tritiated noradrenaline; experiment: Inhibition of the uptake of tritiated noradrenaline in vivo (drug i.p., uptake in cortex slices); conditions: for ED50: ip, 1 h, read-out: Inhibition (50 %) of uptake in vivo, NA (ED50), i.p., half or one hour before the animals were killed; for selectivity towards noradrenaline: uptake inhibition, compared with imipramine
# Procedure: as §1
# as §2, with “The” for “The method is found in European Journal of Pharmacology 2 (1967), 181- 186. The”
# Acute toxicity in mice = conditions: mouse, in vivo, iv, within 24 hours
# Procedure: as §4, §5
# uptake of tritiated 5-HT [7] = experiment: Inhibition of the uptake of tritiated 5-HT in vivo (drug i.p., uptake in midbrain slices); parameters: species or system mice
# [8] = i.p., one hour after administration
# [9] = i.v., 10 minutes after injection, dose which increases the pupil by 200%
Compound,"Inhibition (50 %) of uptake in vitro, NA [1]","inhibition of uptake of noradrenaline in vitro, in words [1]","Inhibition (50 %) of uptake in vitro, 5-HT (uptake of tritiated 5-HT [2])","inhibition of uptake of 5-hydroxytryptamine in vitro, in words (uptake of tritiated 5-HT [2])","Mydriasis PD200 (mice [3]; mouse, in vivo, iv, 10 min)","5-HTP potentiation, 25 mg/kg i.p., 1h (5-HTP response)","L-DOPA potentiation, 10 mg/kg i.p., 1h (Dopa response)","L-DOPA potentiation, 10 mg/kg i.p., 4h (Dopa response)",ED50 (uptake of tritiated 5-HT [4]),ED50 (mice [5]; [8]),ED50 [6],LD50 at 24 h (Acute toxicity in mice),"inhibition of uptake of noradrenaline in vivo, in words [6]",also measured
"CN(C)CCC=C1c2ccccc2CCc2ccccc21 [Amitriptyline, reference compound]",,,,,,,,,,,,,,Dopa response score of control (Dopa response; 20 mg/kg i.p. 4 hours before 1-Dopa): three
"CNC1CCC(c2ccccc2)(c2ccccc2)C1 (stereo not drawn) [PUB 107, 1-methylamino-3,3-diphenylcyclopentane]",0.7 µg/mL,potent inhibitors,1 µg/mL,potent inhibitors,15 mg/kg,0,2,2,> 40 mg/kg,> 50 mg/kg,20 mg/kg,30 mg/kg,,
"CN(C)C1CCC(c2ccccc2)(c2ccccc2)C1 (stereo not drawn) [PUB 112, 1-dimethylamino-3,3-diphenylcyclopentane]",0.4 µg/mL,potent inhibitors,0.7 µg/mL,potent inhibitors,,25,2.5,2,> 40 mg/kg,,25 mg/kg,18 mg/kg,,Mydriasis PD200 (mice [3]; [9]): < 1 mg/kg; ED50 (mice [5]): > 50 mg/kg
"CN(C)CC1CCC(c2ccccc2)(c2ccccc2)C1 (stereo not drawn) [PUE 117, 1-dimethylaminomethyl-3,3-diphenylcyclopentane]",2.3 µg/mL,,3.6 µg/mL,,,0,3,1.5,> 40 mg/kg,,17 mg/kg,30 mg/kg,,Mydriasis PD200 (mice [3]; [9]): < 1 mg/kg; ED50 (mice [5]): > 50 mg/kg
"NCC1CCC(c2ccccc2)(c2ccccc2)C1 (stereo not drawn) [PUE 119, 1-aminomethyl-3,3-diphenylcyclopentane]",0.025 µg/mL,strongly effective,0.34 µg/mL,considerably weaker effect,,0,1.5,1.5,> 40 mg/kg,,,22 mg/kg,Strong inhibition of the uptake of noradrenaline only,"Mydriasis PD200 (mice [3]; [9]): 2.5 mg/kg; 5-HTP potentiation, 25 mg/kg i.p., 4h (5-HTP response): 0; ED50 (mice [5]): > 50 mg/kg"
"CNCC1CCC(c2ccccc2)(c2ccccc2)C1 (stereo not drawn) [PUE 122, 1-methylaminomethyl-3,3-diphenylcyclopentane]",0.05 µg/mL,strongly effective,4.2 µg/mL,considerably weaker effect,> 12.5 mg/kg,0,3,3,> 40 mg/kg,> 50 mg/kg,5.5 mg/kg,15 mg/kg,Strong inhibition of the uptake of noradrenaline only,
"NC1CCC(c2ccccc2)(c2ccc(Cl)cc2)C1 (stereo not drawn) [PUN 122, 1-amino-3-(4-chlorophenyl)-3-phenylcyclopentane]",0.3 µg/mL,potent inhibitors,0.7 µg/mL,potent inhibitors,> 12.5 mg/kg,25,3,3,20 mg/kg,> 50 mg/kg,30 mg/kg,15 mg/kg,strong inhibition,"uptake inhibition still pronounced after (uptake of tritiated 5-HT [7]): 16 h; time of maximal uptake inhibition (uptake of tritiated 5-HT [7]; uptake inhibition increases with time): four; duration of inhibition of the uptake mechanism compared with imipramine (uptake of tritiated 5-HT [7]; uptake of 5-HT and noradrenaline): much longer time than does the reference substance imipramine; inhibition of uptake of 5-hydroxytryptamine in vivo, in words (uptake of tritiated 5-HT [4]): strong inhibition; selectivity towards noradrenaline [6]: substantially nonselective ability towards noradrenaline"
"CN(C)C1CCC(c2ccccc2)(c2ccc(Cl)cc2)C1 (stereo not drawn) [PUN 123, 1-dimethylamino-3-(4-chlorophenyl)-3-phenylcyclopentane]",1 µg/mL,potent inhibitors,1 µg/mL,potent inhibitors,< 10 mg/kg,25,,3,40 mg/kg,> 50 mg/kg,30 mg/kg,30 mg/kg,strong inhibition,"5-HTP potentiation, 25 mg/kg i.p., 4h (5-HTP response): 0; inhibition of uptake of 5-hydroxytryptamine in vivo, in words (uptake of tritiated 5-HT [4]): strong inhibition; selectivity towards noradrenaline [6]: substantially nonselective ability towards noradrenaline"
"CNC1CCC(c2ccccc2)(c2ccc(Cl)cc2)C1 (stereo not drawn) [PUN 125, 1-methylamino-3-(4-chlorophenyl)-3-phenylcyclopentane]",1 µg/mL,,2 µg/mL,,,0,1,1,> 40 mg/kg,,> 40 mg/kg,,,
"COc1ccc(C2(c3ccccc3)CCC(N)C2)cc1 (stereo not drawn) [PUT 104, 1-amino-3-(4-methoxyphenyl)-3-phenylcyclopentane]",1 µg/mL,potent inhibitors,0.5 µg/mL,potent inhibitors,> 40 mg/kg,> 25,,,> 40 mg/kg,,> 40 mg/kg,> 40 mg/kg,,"L-DOPA potentiation, entry given as a bound (no score) (Dopa response): > 10"
"NC1CCC(c2ccc(Cl)cc2)(c2ccc(Cl)cc2)C1 (stereo not drawn) [PUT 108, 1-amino-3,3-di(4-chlorophenyl)cyclopentane]",2.5 µg/mL,,1 µg/mL,,> 23 mg/kg,> 25,,,> 40 mg/kg,> 50 mg/kg,> 40 mg/kg,23 mg/kg,,"L-DOPA potentiation, entry given as a bound (no score) (Dopa response): > 10"
